According to US20050158280A1, “Method of reducing angiogenesis” (priority 2001, published 2005):

Columns and labels:
HUVEC [1] = settings: cited from earlier work
ATPDase/CD39 [2] = settings: cited from earlier work; for Specific ADPase activity / ATPase activity: HUVEC lysate, n=6; for Specific ADPase activity: mean SD, control liposomes 26.0±3.1; for ATPase activity: control liposomes 28.2±4.6
HUVEC [3] = settings: cited from earlier work; for rate of ATP hydrolysis by EC: HUVEC after transfection, n=9, liposome treated controls 17.9
CD39 mRNA = settings: HUVEC, 48 h post-transfection; vs scrambled oligonucleotides and control liposomes; cited from earlier work
CD39 = settings: HUVEC, cited from earlier work; for immunoreactive intact CD39 (densitometric analysis of Western blot): 48 h after transfection, control liposomes = 100%
ATPDase/CD39 [4] = settings: COS-7 cells; cited from earlier work
peritoneal macrophages = experiment: Cytofluorometric (FACS) analysis of macrophage integrin/ICAM-1 surface expression; format: cell-based, mouse; settings: 200 μmol/L, vs control; for αmβ2 (MAC-1) and ICAM-1 coexpression levels: quiescent cd39-null macrophages; for cell surface coexpression of αmβ2 (MAC-1) and ICAM-1: wild-type macrophages, 30 minutes
Description: After isolation, naive peritoneal macrophages were also stimulated for 30 minutes (or for 24 hours) in RPMI+5% FCS, both at 37° C., with ATP 200 μmol/L, or with ATPγS 200 μmol/L, and then washed with PBS. Nonspecific binding of isospecific IgG was controlled by incubation with isospecific IgG conjugated to FITC and phycoerythrin, respectively. Cells were double-stained with phycoerythrin-conjugated rat anti-mouse CD11b in conjunction with FITC-labeled anti-mouse intercellular adhesion molecule (ICAM)-1 (or very late antigen-1, -4), respectively. Fluorescence-activated cell sorter (FACS) analysis was performed (FACSCAN™, Becton Dickinson). Data were analyzed with CELLQUEST™ computer software (Becton Dickinson).

monocyte/macrophages = experiment: Transmigration of monocyte/macrophages through an endothelial cell monolayer; format: cell-based, mouse
Description: (§1) Transmigration assays through an endothelial cell monolayer were performed (Jones, G. E. J. Leukoc. Biol. 68:593-602, 2000). Murine 2F2B endothelial cells (ATCC) were plated on collagen type 1-coated polycarbonate inserts with 3-μm pores (Costar, Fisher Scientific) and then incubated in RPMI containing 5% FCS overnight to attain full confluence. Wild-type or cd39-null peritoneal macrophages were added to the upper chamber and incubated at 37° C. in 5% CO2 for 10 hours. In the lower chamber, culture media with chemoattractant factors at various combinations were added: ATP 200 μmol/L, serotonin 20 μmol/L, and monocyte chemoattractant factor-1 (MCP-1) 50 ng/mL. Nonadherent cells in both supernatant fluids were counted. In parallel experiments, inserts were precoated with collagen or MATRIGEL® alone. Wild-type and cd39-null macrophages were plated on the upper surface of coated inserts. Cells were allowed to adhere and migrate over a 6-hour period. Cells on the lower surface were fixed in 2% ethanol and stained with 0.2% crystal violet (Sigma). Four fields of vision (×400) per well were randomly chosen, and cell counts were performed manually by 2 observers in a blinded fashion.

macrophages = experiment: Transmigration of macrophages on MATRIGEL-coated Transwell membranes; format: cell-based, mouse; settings: for migration through MATRIGEL (FIG. 5, in words): cd39-null knockout (KO) macrophages; for number of transmigrated macrophages (normalized to wild-type): cd39-null macrophages, nonstimulated null 80±30.0% of wild-type; for number of transmigrated macrophages (normalized to wild-type) / number of transmigrated macrophages (normalized): MATRIGEL-coated Transwell; for number of transmigrated macrophages (normalized): wild-type macrophages, no endothelial cells, ATP 200 μmol/L, serotonin 20 μmol/L, MCP-1 50 ng/mL
Description: as §1

[5] = cd39-null monocyte/macrophages, ATP 200 μmol/L or MCP-1 50 ng/mL, spontaneous 6200±1200
[6] = wild-type monocyte/macrophages, ATP 200 μmol/L or MCP-1 50 ng/mL in lower chamber, spontaneous 4900±400

Row | Compound | Total cell protein content (HUVEC [1]) | Specific ADPase activity (ATPDase/CD39 [2]) | ATPase activity (ATPDase/CD39 [2]) | rate of ATP hydrolysis by EC (HUVEC [3]) | immunoreactive intact CD39 (densitometric analysis of Western blot) (CD39) | αmβ2 (MAC-1) and ICAM-1 coexpression levels (peritoneal macrophages) | cell surface coexpression of αmβ2 (MAC-1) and ICAM-1 (peritoneal macrophages) | monocyte/macrophages migrated across the endothelial cell monolayer (monocyte/macrophages; [5]) | monocyte/macrophages migrated across the endothelial cell monolayer (monocyte/macrophages; [6]) | migration through MATRIGEL (FIG. 5, in words) (macrophages) | number of transmigrated macrophages (normalized to wild-type) (macrophages) | number of transmigrated macrophages (normalized) (macrophages) | other results
1 | 5′-CTCCTTTGTATCTTCCATAAGTAGC-3′ (antisense CTCCTTTGTATCTTCCATAAGTAGC; chimeric second generation modifications, further chemistry not given here) [antisense oligonucleotides] | 17.6±2.8 (g/10^6cells | 9.5±3.4 nmole Pi/min/mg protein | 15.1±3.4 nmole Pi/min/mg protein | 4.8 pmole/min/10^6cells | 66% | – | – | – | – | – | – | – | cell viability determined by trypan blue exclusion (HUVEC [1]): over 90%; ATPase activity, of control levels (ATPDase/CD39 [2]; HUVEC, residual activity): 53%; ATPase activity, of that for scrambled control oligomers (ATPDase/CD39 [2]; HUVEC, residual activity): 51%; Normalized ADPase activity, compared with scrambled oligomers (ATPDase/CD39 [2]; HUVEC, residual activity): 42%; Normalized ADPase activity, of control liposomes (ATPDase/CD39 [2]; HUVEC, residual activity): 36%; boost of area under curve estimates of ATP release (HUVEC [3]; ADP-stimulated HUVEC, over first 15 min, compared to controls): 194%; CD39 mRNA expression (Northern blotting) (CD39 mRNA): specifically inhibited transcription of CD39 mRNA; apparent decrease in CD39 protein expression (qualitative Western blotting) (CD39; 48 h): approximately 40%; ADPase levels, of control cells transfected with CD39 cDNA (ATPDase/CD39 [4]): 15%; ATPase levels, of control cells transfected with CD39 cDNA (ATPDase/CD39 [4]): approximately 5%
2 | 5′-TTCGTATCTTCGCTAGCTTATACAC-3′ (TTCGTATCTTCGCTAGCTTATACAC; chemistry not given here) [scrambled control oligonucleotides, scrambled control oligonucleotide] | 17.7±1.8 (g/10^6cells | 22.6±2.1 nmole Pi/min/mg protein | 29.1±1.2 nmole Pi/min/mg protein | 19.6 pmole/min/10^6cells | 103% | – | – | – | – | – | – | – | –
3 | Nc1ncnc2c1ncn2[C@@H]1O[C@H](COP(=O)(O)OP(=O)(O)OP(=O)(O)O)[C@@H](O)[C@H]1O [ATP, adenosine triphosphate] | – | – | – | – | – | largely unaltered | increased significantly | 8,750±4,100 cells | 22,300±3,300 cells | no substantial effect | 108±24% | 230±20% | –
4 | Nc1ncnc2c1ncn2[C@@H]1O[C@H](COP(=O)(O)OP(=O)(O)OP(O)(O)=S)[C@@H](O)[C@H]1O [ATPγS] | – | – | – | – | – | largely unaltered | increased significantly | – | – | – | – | – | –
5 | NCCc1c[nH]c2ccc(O)cc12 [serotonin] | – | – | – | – | – | – | – | – | – | no substantial effect | 98±20.0% | 120±20% | –
6 | monocyte chemoattractant factor-1 [MCP-1] | – | – | – | – | – | – | – | 35,200±7,300 cells | 61,800±23,400 cells | – | 303±17% | 450±20% | –
